This is an account of results in paper PMC8197214, “8a, a New Acridine Antiproliferative and Pro-Apoptotic Agent Targeting HDAC1/DNMT1” (International Journal of Molecular Sciences, 2021).

For this assay, the target named is DNMT1 (Homo sapiens, UniProt P26358). The assay can be described thus: biolayer interferometry (Octet K2), His-tagged DNMT1 on NTA biosensor. In kind it is binding.
Chain of DNMT1 (P26358 whole entry): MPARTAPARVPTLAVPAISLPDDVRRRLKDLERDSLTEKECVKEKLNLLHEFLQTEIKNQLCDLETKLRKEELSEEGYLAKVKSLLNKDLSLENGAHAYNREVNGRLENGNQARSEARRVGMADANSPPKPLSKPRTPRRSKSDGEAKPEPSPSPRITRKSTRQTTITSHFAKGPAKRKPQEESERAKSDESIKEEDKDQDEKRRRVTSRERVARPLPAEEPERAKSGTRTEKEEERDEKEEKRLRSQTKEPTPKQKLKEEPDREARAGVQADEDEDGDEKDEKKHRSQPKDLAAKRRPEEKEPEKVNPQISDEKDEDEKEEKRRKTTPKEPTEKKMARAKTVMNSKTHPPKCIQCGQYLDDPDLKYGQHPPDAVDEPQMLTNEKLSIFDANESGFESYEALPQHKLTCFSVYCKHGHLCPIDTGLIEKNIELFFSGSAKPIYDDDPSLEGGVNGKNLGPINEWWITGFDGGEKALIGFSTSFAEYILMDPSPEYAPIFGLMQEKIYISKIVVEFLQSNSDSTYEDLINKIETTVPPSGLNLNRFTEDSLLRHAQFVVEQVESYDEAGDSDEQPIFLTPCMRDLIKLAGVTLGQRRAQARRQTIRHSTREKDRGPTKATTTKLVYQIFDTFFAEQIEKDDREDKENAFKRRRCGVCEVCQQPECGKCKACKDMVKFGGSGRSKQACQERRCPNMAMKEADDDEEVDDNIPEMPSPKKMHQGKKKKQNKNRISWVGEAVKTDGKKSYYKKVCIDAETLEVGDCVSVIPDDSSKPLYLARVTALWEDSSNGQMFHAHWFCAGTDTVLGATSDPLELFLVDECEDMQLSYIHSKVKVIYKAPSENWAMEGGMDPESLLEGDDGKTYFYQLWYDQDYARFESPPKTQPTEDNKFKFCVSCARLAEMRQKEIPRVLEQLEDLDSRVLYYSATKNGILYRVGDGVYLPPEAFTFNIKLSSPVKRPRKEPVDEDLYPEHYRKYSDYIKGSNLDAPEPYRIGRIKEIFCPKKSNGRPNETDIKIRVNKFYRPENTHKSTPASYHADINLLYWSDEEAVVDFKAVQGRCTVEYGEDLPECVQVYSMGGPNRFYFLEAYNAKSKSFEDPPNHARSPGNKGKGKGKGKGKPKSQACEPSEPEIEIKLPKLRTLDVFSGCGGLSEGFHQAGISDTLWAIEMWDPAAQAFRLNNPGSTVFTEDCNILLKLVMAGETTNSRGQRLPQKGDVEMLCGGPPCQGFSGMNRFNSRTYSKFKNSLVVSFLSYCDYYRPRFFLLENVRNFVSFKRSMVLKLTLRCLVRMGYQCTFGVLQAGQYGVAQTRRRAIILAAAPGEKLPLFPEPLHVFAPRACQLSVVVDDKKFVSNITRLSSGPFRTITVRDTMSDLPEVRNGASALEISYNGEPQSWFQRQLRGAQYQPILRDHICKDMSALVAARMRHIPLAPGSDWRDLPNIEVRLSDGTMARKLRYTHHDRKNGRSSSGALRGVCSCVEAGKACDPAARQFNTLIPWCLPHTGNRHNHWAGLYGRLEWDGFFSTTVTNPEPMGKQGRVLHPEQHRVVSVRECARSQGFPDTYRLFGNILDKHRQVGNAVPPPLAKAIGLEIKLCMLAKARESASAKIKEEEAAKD

A word on the Kd: it is the free concentration of one partner at which half of the binding sites on the other are occupied at equilibrium, for simple one-to-one binding. The low end stands for a tighter complex, the high end for a looser complex. Regarding `Cc1cccc2c(NCc3ccc(C(=O)Nc4ccccc4N)cc3)c3ccccc3nc12` [8a, N-(2-aminophenyl)-4-(((4-methylacridin-9-yl)amino)methyl) benzamide], the Kd worked out at 1.9 nM.
